Reference: article PMC4170737 (Bioorganic & medicinal chemistry letters, 2014)

Columns and labels:
[1] = molecular target: T1, human PMI (phosphomannose isomerase) (Homo sapiens, UniProt P34949)
T1 sequence (P34949 1-423): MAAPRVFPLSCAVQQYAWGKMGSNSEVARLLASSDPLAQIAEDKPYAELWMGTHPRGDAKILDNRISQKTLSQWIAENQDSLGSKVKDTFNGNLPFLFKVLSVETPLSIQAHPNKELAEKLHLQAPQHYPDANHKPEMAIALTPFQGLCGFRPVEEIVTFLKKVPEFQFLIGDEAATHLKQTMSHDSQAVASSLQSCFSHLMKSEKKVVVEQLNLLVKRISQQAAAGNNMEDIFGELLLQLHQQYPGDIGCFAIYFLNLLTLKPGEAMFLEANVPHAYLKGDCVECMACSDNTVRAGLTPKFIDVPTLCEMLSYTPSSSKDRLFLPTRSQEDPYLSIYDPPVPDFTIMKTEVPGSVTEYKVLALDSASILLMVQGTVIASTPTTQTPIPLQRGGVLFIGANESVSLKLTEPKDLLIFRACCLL

[2] = molecular target: T2, human PMM2 (Homo sapiens, UniProt O15305)
T2 sequence (O15305 1-246): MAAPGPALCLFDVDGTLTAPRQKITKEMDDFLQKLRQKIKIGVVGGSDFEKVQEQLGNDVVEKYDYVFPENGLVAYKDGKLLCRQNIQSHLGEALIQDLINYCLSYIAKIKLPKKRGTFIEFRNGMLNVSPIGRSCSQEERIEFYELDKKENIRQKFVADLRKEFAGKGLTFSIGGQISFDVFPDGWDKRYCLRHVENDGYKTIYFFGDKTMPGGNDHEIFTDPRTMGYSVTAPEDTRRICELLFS

[3] = Plasma stability, mouse
[4] = Plasma protein binding, mouse
[5] = Hepatic microsome stability, mouse; settings: for Hepatic Microsome Stability: mouse (first or only value of cell)
[6] = Plasma protein binding, human
[7] = Hepatic microsome stability, human; settings: for Hepatic Microsome Stability: human (first or only value of cell)
[8] = Plasma stability, human
[9] = PAMPA permeability
[10] = molecular target: T2, human PMM2; assay: biochemical
[11] = tested on: mevalonate pathway in streptococcus pneumonia; settings: ref PubChem AID1028; cited from earlier work
[12] = molecular target: T3, TNAP (Homo sapiens, UniProt P05186)
T3 sequence (P05186 18-502 limits assumed): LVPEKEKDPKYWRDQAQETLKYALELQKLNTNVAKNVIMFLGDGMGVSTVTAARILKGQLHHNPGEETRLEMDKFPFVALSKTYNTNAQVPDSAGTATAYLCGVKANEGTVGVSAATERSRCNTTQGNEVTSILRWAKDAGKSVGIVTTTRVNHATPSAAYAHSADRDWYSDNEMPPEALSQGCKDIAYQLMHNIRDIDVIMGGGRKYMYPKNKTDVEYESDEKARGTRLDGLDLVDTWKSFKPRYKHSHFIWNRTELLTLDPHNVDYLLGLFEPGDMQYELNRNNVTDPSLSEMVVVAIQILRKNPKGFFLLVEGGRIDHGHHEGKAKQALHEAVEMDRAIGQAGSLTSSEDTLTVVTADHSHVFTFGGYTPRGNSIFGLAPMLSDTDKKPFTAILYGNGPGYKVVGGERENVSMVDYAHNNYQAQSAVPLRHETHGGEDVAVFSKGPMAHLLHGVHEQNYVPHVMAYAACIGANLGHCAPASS

[13] = 1× PBS, pH 7.4 alone, mouse column (second value of cell)
[14] = mouse plasma: 1× PBS, pH 7.4, 1:1 (first value of cell)
[15] = 1× PBS, pH 7.4 alone, human column (second value of cell)
[16] = human plasma: 1× PBS, pH 7.4, 1:1 (first value of cell)

Structure (SMILES): O=c1c2ccccc2sn1-c1ccc(F)c(Cl)c1 [Compound 2m]
- Activity at PMI (in words) [1]: inactive
- Activity at PMM2 (in words) [2]: inactive

Structure (SMILES): O=C(O)c1cccc(-n2sc3ccccc3c2=O)c1 [Compound 2n]
- Plasma Stability [3, 13]: 71.2 % Remaining at 3hrs
- Plasma Stability [3, 14]: 100 % Remaining at 3hrs
- Plasma Protein Binding ([4]; 1 μM): 18.8 % Bound
- Plasma Protein Binding ([4]; 10 μM): 30.1 % Bound
- Hepatic Microsome Stability [5]: 100 % Remaining at 1hr
- Plasma Protein Binding ([6]; 10 μM): n.d. / 59.4 % Bound
- Activity at PMM2 (in words) [2]: no activity
- Hepatic Microsome Stability [7]: 100 % Remaining at 1hr
- Plasma Stability [8, 15]: 55.5 % Remaining at 3hrs
- Plasma Stability [8, 16]: 50.2 % Remaining at 3hrs

Structure (SMILES): COC(=O)c1cccc(-n2sc3ccccc3c2=O)c1 [Compound 2o]
- Papp ([9]; PAMPA Permeability, donor pH 5.0, acceptor pH 7.4): 1290 ×10⁻⁶ cm/s
- Papp ([9]; PAMPA Permeability, donor pH 6.2, acceptor pH 7.4): 1230 ×10⁻⁶ cm/s
- Papp ([9]; pH 7.4, PAMPA Permeability, donor pH 7.4, acceptor pH 7.4): 1300 ×10⁻⁶ cm/s
- Plasma Stability [3, 13]: 55.2 % Remaining at 3hrs
- Plasma Stability [3, 14]: 59.6 % Remaining at 3hrs
- Plasma Protein Binding ([4]; 1 μM): 48.0 % Bound
- Plasma Protein Binding ([4]; 10 μM): 37.6 % Bound
- Hepatic Microsome Stability [5]: 45.9 % Remaining at 1hr
- Hepatic Microsome Stability (NADPH minus) ([5]; mouse, NADPH minus (second value of cell)): 44.6 % Remaining at 1hr
- Plasma Protein Binding ([6]; 1 μM): 41.2 % Bound
- Plasma Protein Binding ([6]; 10 μM): 57.3 % Bound
- Hepatic Microsome Stability [7]: 72.4 % Remaining at 1hr
- Hepatic Microsome Stability (NADPH minus) ([7]; human, NADPH minus (second value of cell)): 31.5 % Remaining at 1hr
- Plasma Stability [8, 15]: 49.3 % Remaining at 3hrs
- Plasma Stability [8, 16]: 15.4 % Remaining at 3hrs

Structure (SMILES): CCOC(=O)c1ccc(-n2sc3ccccc3c2=O)cc1 [Compound 2p]
- Activity at PMI (in words) [1]: essentially devoid of activity
- Activity at PMM2 (in words) [2]: essentially devoid of activity

Structure (SMILES): CN(C)C(=O)c1cccc(-n2sc3ccccc3c2=O)c1 [Compound 2q]
- Activity at PMI (in words) [1]: no activity
- Plasma Stability [3, 13]: 56.9 % Remaining at 3hrs
- Plasma Stability [3, 14]: 76.2 % Remaining at 3hrs
- Plasma Protein Binding ([4]; 1 μM): 48.0 % Bound
- Plasma Protein Binding ([4]; 10 μM): 46.7 % Bound
- Hepatic Microsome Stability [5]: 56.6 % Remaining at 1hr
- Plasma Protein Binding ([6]; 1 μM): 41.3 % Bound
- Activity at PMM2 (in words) [2]: no activity
- Hepatic Microsome Stability [7]: 45.7 % Remaining at 1hr
- IC50 [10]: > 50 µM
- Plasma Stability [8, 15]: 60.0 % Remaining at 3hrs
- Plasma Stability [8, 16]: 18.9 % Remaining at 3hrs
- Activity in screen for inhibitors of the mevalonate pathway (in words) [11]: weak activity
- Inhibitory activity against TNAP (in words) [12]: devoid of any significant inhibitory activity

Structure (SMILES): CN(C)S(=O)(=O)c1cccc(-n2sc3ccccc3c2=O)c1 [Compound 2s]
- Plasma Stability [3, 13]: 40.0 % Remaining at 3hrs
- Plasma Stability [3, 14]: 65.3 % Remaining at 3hrs
- Plasma Protein Binding ([4]; 1 μM): 35.6 % Bound
- Plasma Protein Binding ([4]; 10 μM): 34.1 % Bound
- Hepatic Microsome Stability [5]: 100 % Remaining at 1hr
- Plasma Protein Binding ([6]; 10 μM): n.d. / 56.5 % Bound
- Hepatic Microsome Stability [7]: 72.4 % Remaining at 1hr
- Plasma Stability [8, 15]: 32.3 % Remaining at 3hrs
- Plasma Stability [8, 16]: 11.4 % Remaining at 3hrs

Structure (SMILES): CCN(CC)S(=O)(=O)c1cccc(-n2sc3ccccc3c2=O)c1 [Compound 2t]
- Activity at PMI (in words) [1]: devoid of activity
- Activity at PMM2 (in words) [2]: devoid of activity
